US20260242362A1, “PREPARATION OF 3,4,5-TRISUBSTITUTED TRIAZOLES AND METHODS OF USING THE SAME” (University of Florida Research Foundation, Incorporated, priority 2023, published 2026)

Legend:
[1] = mouse, microsomes
Experimental: Microsomal stability was determined using mouse hepatic microsomes and LC/MS detections over time (Zhou et al., 2013, 22).

kappa opioid receptor [2] = target: T1, kappa opioid receptor (Homo sapiens, UniProt P41145); assay: GTPγS binding assay (G-protein activation); format: biochemical; conditions: for EC50: 3 parameter nonlinear regression, nc = did not converge; for GTPγS Emax (% U60): relative to U69,593 = 100% Emax; for GTPγS maximum stimulation observed at 10 μM (starred Emax cells): * compounds that did not reach plateau
Target sequence in this assay (P41145 whole entry, the tested form may be a part): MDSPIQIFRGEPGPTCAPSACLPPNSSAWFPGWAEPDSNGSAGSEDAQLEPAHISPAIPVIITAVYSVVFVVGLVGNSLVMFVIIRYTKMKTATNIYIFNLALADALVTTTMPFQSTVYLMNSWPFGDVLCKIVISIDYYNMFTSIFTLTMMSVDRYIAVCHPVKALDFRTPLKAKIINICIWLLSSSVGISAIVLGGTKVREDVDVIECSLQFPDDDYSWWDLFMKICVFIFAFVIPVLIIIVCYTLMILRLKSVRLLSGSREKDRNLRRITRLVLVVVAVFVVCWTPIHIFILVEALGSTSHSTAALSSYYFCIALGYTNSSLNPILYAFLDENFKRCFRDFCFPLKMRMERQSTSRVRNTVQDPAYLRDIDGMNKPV

kappa opioid receptor [3] = target: T1, kappa opioid receptor; assay: PathHunter DiscoverX β-arrestin2 recruitment (enzyme fragment complementation) assay; format: cell-based; conditions: for EC50: 3 parameter nonlinear regression, nc = did not converge, read-out: β-arrestin2 EC50; for β-arrestin2 Emax (% U60): relative to U69,593 = 100% Emax, ~ did not plateau at 100%; for β-arrestin2 maximum stimulation observed at 10 μM (starred Emax cells / % max at 10 uM): * compounds that did not reach plateau
Target sequence in this assay (P41145 whole entry, the tested form may be a part): as above
Target sequence in this assay (P32121 whole entry partner, the tested form may be a part): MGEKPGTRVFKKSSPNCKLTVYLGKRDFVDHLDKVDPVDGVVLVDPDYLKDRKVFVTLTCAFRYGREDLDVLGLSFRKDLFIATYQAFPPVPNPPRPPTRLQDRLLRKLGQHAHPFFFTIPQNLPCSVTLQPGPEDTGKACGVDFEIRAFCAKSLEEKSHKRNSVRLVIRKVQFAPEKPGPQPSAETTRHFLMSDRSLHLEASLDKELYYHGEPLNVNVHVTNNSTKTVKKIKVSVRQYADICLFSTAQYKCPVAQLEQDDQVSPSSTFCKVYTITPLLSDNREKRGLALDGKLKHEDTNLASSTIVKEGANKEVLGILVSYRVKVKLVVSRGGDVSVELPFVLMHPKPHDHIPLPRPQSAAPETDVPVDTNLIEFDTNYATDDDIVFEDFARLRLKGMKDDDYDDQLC

SMILES | Microsomal Stability [1] | EC50 (kappa opioid receptor [2]) | GTPγS Emax (% U60) (kappa opioid receptor [2]) | EC50 (kappa opioid receptor [3]) | β-arrestin2 Emax (% U60) (kappa opioid receptor [3]) | β-arrestin2 maximum stimulation observed at 10 μM (starred Emax cells / % max at 10 uM) (kappa opioid receptor [3]) | also measured
Fc1ccc(CCc2nnc(-c3ccccn3)n2Cc2cccs2)cc1 [Compound 26] | 3.1 min | 288 nM | 92 % U60 | 3020 nM | 75 % U60 | – | –
COc1ccc(CCc2nnc(-c3ccccn3)n2Cc2cccs2)cc1 [Compound 25] | 5.6 min | – | – | > 10000 nM | 124 % U60 | – | –
FC(Cc1ccccc1)c1nnc(-c2ccccn2)n1Cc1ccco1 (stereo not drawn) [Compound 43] | 9.1 min | 3820 nM | – | > 10000 nM | – | 7* % U60 | –
Cc1ccc(/C=C/c2nnc(-c3nccn3C)n2Cc2ccco2)cc1C(F)(F)F [51 (UNC9012)] | – | – | 76.1 % U60 | – | – | 17.3 (% max at 10 uM) % U60 | –
Cn1ccnc1-c1nnc(CCc2ccc(Cl)cc2)n1Cc1nccs1 [Compound 53] | 2.4 min | 2250 nM | 94 % U60 | 5020 nM | 81 % U60 | – | –
FC(F)(F)c1ccccc1CCc1nnc(-c2ccccn2)n1Cc1cccs1 [Compound 31] | 3.0 min | – | – | > 10000 nM | 44 % U60 | – | –
Cc1ccc(CCc2nnc(-c3nccn3C)n2Cc2ccco2)cc1C(F)(F)F [Compound 54] | 1.6 min | 69 nM | 92 % U60 | 788 nM | 112 % U60 | – | Emax (weak partial agonist) (kappa opioid receptor [3]; text b193, assay not named): about 26%
c1ccc(-c2nnc(C3CCc4ccccc4C3)n2Cc2cccs2)nc1 (stereo not drawn) [Compound 37] | 13.1 min | – | – | – | – | – | –
Cc1ccc(/C=C/c2nnc(-c3nccn3C)n2Cc2ccco2)cc1C(F)(F)F [Compound 49] | 14.1 min | – | 76 % U60 | – | – | 17* % U60 | –
Cc1ccc(CCc2nnc(-c3ccccn3)n2-c2ccc3ccccc3c2)cc1C(F)(F)F [Compound 12a] | – | 10300 nM | – | – | – | – | –
C(=C/c1nnc(-c2ccccn2)n1Cc1ccco1)/c1ccccc1 [Compound 39] | 12.6 min | 1800 nM | – | – | – | 19* % U60 | –
OC(Cc1ccccc1)c1nnc(-c2ccccn2)n1Cc1ccco1 (stereo not drawn) [Compound 41] | 17.4 min | – | – | – | – | 0* % U60 | KOR potency / activity in words (SAR commentary) (kappa opioid receptor [2]): loss in potency; GTPγS maximum stimulation observed at 10 μM (starred Emax cells) (kappa opioid receptor [2]): 22* % U60
Brc1ccc(CCc2nnc(-c3ccccn3)n2Cc2cccs2)cc1 [Compound 28] | 4.6 min | – | 96 % U60 | 963 nM | 106 % U60 | – | –
Cc1ccc(CCc2nnc(-c3ccccn3)n2Cc2ccccc2)cc1C(F)(F)F [Compound 8] | 0.9 min | – | – | 6340 nM | 180 % U60 | – | –
Cc1ccc(CCc2nnc(-c3ccccn3)n2CC2CCCO2)cc1C(F)(F)F (stereo not drawn) [Compound 17a] | – | 104 nM | – | 5430 nM | – | – | –
Cc1ccc(CCc2nnc(-c3ccncn3)n2Cc2cccs2)cc1C(F)(F)F [Compound 18] | 1.1 min | – | – | > 10000 nM | – | 66* % U60 | –
Cc1ccc(CCc2nnc(-c3ccccn3)n2-c2ccccc2)cc1C(F)(F)F | – | – | – | – | – | – | KOR potency / activity in words (SAR commentary) (kappa opioid receptor [2]): potency was completely lost
OC(Cc1nnc(-c2ccccn2)n1Cc1ccco1)c1ccccc1 (stereo not drawn) [Compound 45] | 20.7 min | – | – | – | – | – | –
Cc1ccc(/C=C/c2nnc(-c3nccn3C)n2Cc2cccs2)cc1C(F)(F)F [52 (UNC9166)] | 12.2 min | 349 nM | 74.2 % U60 | 55800 nM | – | 37.7 (% max at 10 uM) % U60 | –
Cc1ccc(CCc2nnc(-c3ccccn3)n2Cc2ccccn2)cc1C(F)(F)F [Compound 10] | 1.0 min | – | 784 % U60 | 7690 nM | 125 % U60 | – | –
Cc1ccc(CCc2nnc(-c3ccc4ccccc4c3)n2Cc2cccs2)cc1C(F)(F)F [Compound 21] | 1.3 min | – | – | – | – | 16* % U60 | –
Brc1cccc(CCc2nnc(-c3ccccn3)n2Cc2cccs2)c1 [Compound 29] | 3.1 min | – | 89 % U60 | 5020 nM | 114 % U60 | – | –
Cc1ccc(/C=C/c2nnc(-c3ccccn3)n2Cc2nccs2)cc1C(F)(F)F [50 (UNC9078)] | 10.1 min | 767 nM | 81.6 % U60 | – | – | 51.6 (% max at 10 uM) % U60 | –
Cc1ccc(CCc2nnc(-c3ccccc3)n2Cc2cccs2)cc1C(F)(F)F [Compound 14] | 1.8 min | – | – | > 10000 nM | ~100 % U60 | – | –

SMILES | Microsomal Stability [1] | EC50 (kappa opioid receptor [2]) | GTPγS Emax (% U60) (kappa opioid receptor [2]) | EC50 (kappa opioid receptor [3]) | β-arrestin2 Emax (% U60) (kappa opioid receptor [3]) | β-arrestin2 maximum stimulation observed at 10 μM (starred Emax cells / % max at 10 uM) (kappa opioid receptor [3]) | also measured
Cc1ccc(CCc2nnc(-c3ccccn3)n2Cc2cccnc2)cc1C(F)(F)F [Compound 11] | 1.7 min | 70 nM | 90 % U60 | 479 nM | 105 % U60 | – | –
c1ccc(-c2nnc(CCc3ccc4ccccc4c3)n2Cc2cccs2)nc1 [Compound 36] | 2.4 min | – | – | – | – | – | –
Cc1ccc(CCc2nnc(-c3ccccn3)n2Cc2ncco2)cc1C(F)(F)F [Compound 5a] | – | 38 nM | – | 532 nM | – | – | –
Cc1ccc(CCc2nnc(-c3ncccn3)n2Cc2cccs2)cc1C(F)(F)F [Compound 17] | 0.8 min | – | – | 2180 nM | 150 % U60 | – | –
Cc1ccc(CCc2nnc(-c3ccc4ccccc4n3)n2Cc2cccs2)cc1C(F)(F)F [Compound 22] | 2.2 min | – | – | > 10000 nM | ~100 % U60 | – | –
Cc1ccc(CCc2nnc(-c3ccccn3)n2CCc2ccccc2)cc1C(F)(F)F [Compound 13a] | – | 1940 nM | – | – | – | – | –
O=C(Cc1ccccc1)c1nnc(-c2ccccn2)n1Cc1ccco1 [Compound 42] | 8.1 min | – | – | – | 2 % U60 | – | metabolic stability in words [1]: increased metabolic stability; KOR potency / activity in words (SAR commentary) (kappa opioid receptor [2]): loss in potency; GTPγS maximum stimulation observed at 10 μM (starred Emax cells) (kappa opioid receptor [2]): 4* % U60
Cc1ccc(CCCc2nnc(-c3ccccn3)n2Cc2ccco2)cc1C(F)(F)F [Compound 3] | 1.6 | 812 nM | 74 % U60 | – | – | – | –
FC(Cc1nnc(-c2ccccn2)n1Cc1cccs1)c1ccccc1 (stereo not drawn) [Compound 46] | 69.7 min | 1060 nM | – | > 10000 nM | – | 64* % U60 | –
Cc1ccc(CCc2nnc(-c3cccnc3)n2Cc2cccs2)cc1C(F)(F)F [Compound 15] | 1.0 min | – | 85 % U60 | – | – | 14* % U60 | –
Cc1ccc(/C=C/c2nnc(-c3ccccn3)n2Cc2cccs2)cc1C(F)(F)F [Compound 47] | 22.0 min | – | 83 % U60 | – | – | 36* % U60 | KOR potency / activity in words (SAR commentary) (kappa opioid receptor [2]): completely inactive
c1ccc(-c2nnc(CCc3cccc4ccccc34)n2Cc2cccs2)nc1 [Compound 35] | 1 min | – | – | > 10000 nM | 67 % U60 | – | –
Cc1cc(CCc2nnc(-c3ccccn3)n2Cc2cccs2)ccc1C(F)(F)F [Compound 39a] | – | 3.1 nM | – | – | – | – | –
Cc1ccc(CCc2nnc(-c3ccccn3)n2Cc2nccs2)cc1C(F)(F)F [Compound 7] | 2.1 min | 51 nM | 63 % U60 | 3570 nM | 82 % U60 | – | –
Cc1ccc(CCc2nnc(-c3ccccn3)n2CC2CC2)cc1C(F)(F)F [Compound 13] | 0.9 min | – | – | – | – | – | –
Cc1ccc(/C=C/c2nnc(-c3nccn3C)n2Cc2nccs2)cc1C(F)(F)F [53 (UNC9081)] | 14.5 min | 309 nM | – | 1570 nM | – | 25.9 (% max at 10 uM) % U60 | –
Cc1ccc(CN(Cc2ccco2)C(=O)c2ccccn2)cc1C(F)(F)F [Compound 57] | 1.8 min | 368 nM | 92 % U60 | 3130 nM | 87 % U60 | – | –
Cc1ccc(CCc2nnc(-c3ccccn3)n2Cc2ccncc2)cc1C(F)(F)F [Compound 12] | 0.9 min | – | – | – | – | 12* % U60 | GTPγS maximum stimulation observed at 10 μM (starred Emax cells) (kappa opioid receptor [2]): 48* % U60
Cc1ccc(/C=C/c2nnc(-c3nccn3C)n2Cc2nccs2)cc1C(F)(F)F [Compound 51] | 14.5 min | 309 nM | – | 1680 nM | 34 % U60 | – | –
FC(F)(Cc1ccccc1)c1nnc(-c2ccccn2)n1Cc1ccco1 [Compound 44] | – | – | – | – | – | – | KOR potency / activity in words (SAR commentary) (kappa opioid receptor [2]): completely inactive
Cc1ccc(CCc2nnc(-c3ncccc3C)n2Cc2cccs2)cc1C(F)(F)F [Compound 19] | 1.1 min | – | – | 1550 nM | 117 % U60 | – | –
Cc1ccc(CCc2nnc(-c3cccc4ccccc34)n2Cc2cccs2)cc1C(F)(F)F [Compound 20] | 0.9 min | – | – | > 10000 nM | – | 76* % U60 | –
Cc1ccc(CCc2nnc(-c3ccccn3)n2-c2cccc3ccccc23)cc1C(F)(F)F [Compound 11a] | – | 2650 nM | – | – | – | – | –
